Source: patent publication US12319655B2, “RAF kinase inhibitors and methods of use thereof” (Deciphera Pharmaceuticals, LLC, priority 2021, dated 2025)
Where two headings read alike, the source gives them in different places.

Tests used:
A375 cells = assay: A375 Cell Proliferation Assay (1); assay type: cell-based; conditions: Homo sapiens, A-375
Method in brief: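 Resazurin fluorescence (excitation 540 nm, emission 600 nm, after a further 5-6 h) gave IC50s from triplicate compound dilution series.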

[1] = biological target: C-Raf kinase (SEQ. ID NO: 3) (Homo sapiens (Human), UniProt P04049, Y340D/Y341D); assay: Biochemical Assay for C-Raf (1); conditions: Table J
Method in brief: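 IC50 values come from a four-parameter fit of percent inhibition, using the reaction rate over 4–5 h of a 6 h continuous 340 nm read at 30 °C. The enzyme mix was C-Raf 0.43 nM, MEK substrate 30.1 nM and ATP 1 mM, in a PK/LDH NADH-coupled format in Tris pH 7.5 with 1% DMSO.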

[2] = biological target: A-Raf kinase (SEQ. ID No: 1) (Homo sapiens (Human), UniProt P10398, Y301D/Y302D); assay: Biochemical Assay for A-Raf (1); conditions: Table J
Method in brief: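 IC50 values were derived by four-parameter sigmoidal fitting of percent inhibition, calculated from reaction rates over the 4–5 h window. Absorbance at 340 nm was tracked for 6 h at 30 °C via coupled PK/LDH NADH depletion. Conditions: 1 mM ATP, 30.1 nM MEK substrate, 5.55 nM A-Raf (Y301D/Y302D), Tris pH 7.5, 1% DMSO.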

WM3928 cells = assay: WM3928 Cell Proliferation Assay (1); assay type: cell-based
Method in brief: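 IC50 was derived from resazurin fluorescence (ex 540, em 600 nm) after a 6–7 h dye incubation. Before that, cells had 67–72 h of compound exposure at 37 °C, 5% CO2.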

[3] = assay version (1), read-out: CRAF (1) IC50
[4] = assay version (1), read-out: ARAF (1) IC50
[5] = biochemical assay (1), read-out: CRAF (1)
[6] = biochemical assay (1), read-out: ARAF (1)

Chain of A-Raf kinase (SEQ. ID No: 1) (P10398 other isoform, or with tags, fused parts or gaps Y301D (already in the parent)/Y302D (already in the parent)): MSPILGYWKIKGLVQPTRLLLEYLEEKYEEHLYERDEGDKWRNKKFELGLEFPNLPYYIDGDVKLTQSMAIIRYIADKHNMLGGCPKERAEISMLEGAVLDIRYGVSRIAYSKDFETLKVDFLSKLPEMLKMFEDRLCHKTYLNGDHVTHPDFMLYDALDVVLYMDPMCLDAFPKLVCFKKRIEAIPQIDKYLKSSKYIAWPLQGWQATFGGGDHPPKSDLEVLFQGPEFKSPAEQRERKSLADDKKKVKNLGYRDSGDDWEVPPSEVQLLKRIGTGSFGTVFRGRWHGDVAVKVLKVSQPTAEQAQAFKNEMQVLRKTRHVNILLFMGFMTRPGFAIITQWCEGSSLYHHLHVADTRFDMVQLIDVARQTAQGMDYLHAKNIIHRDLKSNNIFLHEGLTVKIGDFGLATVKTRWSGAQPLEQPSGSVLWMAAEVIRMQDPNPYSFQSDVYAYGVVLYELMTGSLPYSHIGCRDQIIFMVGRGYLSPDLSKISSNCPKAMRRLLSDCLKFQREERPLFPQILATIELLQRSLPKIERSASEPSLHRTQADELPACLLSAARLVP
Chain of C-Raf kinase (SEQ. ID NO: 3) (P04049 307-648 Y340D/Y341D): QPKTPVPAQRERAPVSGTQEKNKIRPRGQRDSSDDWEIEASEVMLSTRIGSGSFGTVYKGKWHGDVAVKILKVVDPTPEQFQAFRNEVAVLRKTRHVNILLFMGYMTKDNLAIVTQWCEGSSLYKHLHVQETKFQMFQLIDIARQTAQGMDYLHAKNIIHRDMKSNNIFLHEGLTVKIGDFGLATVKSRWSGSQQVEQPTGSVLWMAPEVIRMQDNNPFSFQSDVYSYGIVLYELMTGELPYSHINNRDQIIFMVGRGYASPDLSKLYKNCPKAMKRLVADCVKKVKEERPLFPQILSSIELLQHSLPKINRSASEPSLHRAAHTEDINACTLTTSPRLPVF

Compound | IC50 (A375 cells) [nM] | IC50 [1, 3] [nM] | IC50 [2, 4] [nM] | IC50 (WM3928 cells) [nM] | IC50 [1, 5] [nM] | IC50 [2, 6] [nM]
CCOc1ncc(-c2cc(NC(=O)c3ccnc(C(F)(F)F)c3)ccc2C)cc1-c1ccnc(NC(C)=O)c1 [Example 68] | ≤ 100 | ≤ 100 | 1000 to 10000 | ≤ 100 | – | –
CCOc1ncc(-c2cc(NC(=O)c3ccnc(C(F)(F)F)c3)ccc2C)cc1-c1ccnc(C(=O)NC)c1 [Example 69] | 100 to 500 | 100 to 500 | 1000 to 10000 | ≤ 100 | – | –
CCOc1ncc(-c2cc(NC(=O)c3ccnc(C(F)(F)F)c3)ccc2C)cc1-c1ccnc(NC(=O)C2CC2)c1 [Example 71] | 100 to 500 | 100 to 500 | 1000 to 10000 | ≤ 100 | – | –
Cc1cc(-c2cc(NC(=O)c3ccnc(C(F)(F)F)c3)ccc2F)cc(-c2ccnc(NC(=O)C3CC3)c2)n1 [Example 72] | 1000 to 10000 | ≤ 100 | 1000 to 10000 | 100 to 500 | – | –
CNC(=O)c1cc(-c2cc(-c3cc(C(=O)Nc4ccnc(C(C)(C)C#N)c4)ccc3C)ccn2)ccn1 [Example 74] | 100 to 500 | 100 to 500 | 1000 to 10000 | 100 to 500 | – | –
Cc1ccc(NC(=O)c2ccnc(C(C)(C)C#N)c2)cc1-c1cccc(-c2cc(NC(=O)C3CC3)ncn2)c1 [Example 77] | ≤ 100 | ≤ 100 | 1000 to 10000 | ≤ 100 | – | –
CNC(=O)c1cc(-c2nccc(-c3cc(NC(=O)c4ccnc(C(C)(C)C#N)c4)ccc3C)n2)ccn1 [Example 78] | ≤ 100 | ≤ 100 | 1000 to 10000 | ≤ 100 | – | –
Cc1ccc(NC(=O)c2ccnc(C(F)(F)F)c2)cc1-c1cccc(-c2cc(NC(=O)C3CC3)ncn2)c1 [Example 80] | ≤ 100 | ≤ 100 | 1000 to 10000 | 100 to 500 | – | –
Cc1ccc(NC(=O)c2ccnc(C(C)(C)C#N)c2)cc1-c1ccnc(-c2ccnc(N)c2)n1 [Example 82] | 500 to 1000 | ≤ 100 | 1000 to 10000 | 1000 to 10000 | – | –
CNC(=O)c1cc(-c2cc(-c3cc(NC(=O)c4ccnc(C(F)(F)F)c4)ccc3C)ncn2)ccn1 [Example 85] | 1000 to 10000 | ≤ 100 | 1000 to 10000 | 1000 to 10000 | – | –
CNC(=O)c1cc(-c2cncc(-c3cc(NC(=O)c4ccnc(C(C)(C)C#N)c4)ccc3C)n2)ccn1 [Example 86] | ≤ 100 | ≤ 100 | 1000 to 10000 | ≤ 100 | – | –
COCC(=O)Nc1cc(-c2nccc(-c3cc(NC(=O)c4ccnc(C(C)(C)C#N)c4)ccc3C)n2)ccn1 [Example 88] | ≤ 100 | ≤ 100 | 1000 to 10000 | ≤ 100 | – | –
CC(=O)Nc1cc(-c2cc(-c3cc(NC(=O)c4ccnc(C(C)(C)C#N)c4)ccc3C)nc(C)n2)ccn1 [Example 89] | 100 to 500 | ≤ 100 | 1000 to 10000 | ≤ 100 | – | –
COC(=O)Nc1cc(-c2cnnc(-c3cc(NC(=O)c4ccnc(C(C)(C)F)c4)ccc3C)c2)ccn1 [Example 375] | 100 to 500 | – | – | ≤ 100 | ≤ 100 | 1000 to 10000
CNC(=O)c1cc(-c2ccnc(-c3cc(NC(=O)c4ccnc(C(C)(C)C#N)c4)ccc3C)c2)ccn1 [Example 376] | ≤ 100 | – | – | 100 to 500 | ≤ 100 | 1000 to 10000
Cc1ccc(NC(=O)c2cc(C3CC3)n(C)n2)cc1-c1cc(-c2ccnc(NC(=O)C3CC3)c2)cnn1 [Example 377] | 100 to 500 | – | – | ≤ 100 | ≤ 100 | 1000 to 10000
CNC(=O)c1cc(-c2ccnc(-c3cc(NC(=O)c4ccnc(C(C)(C)F)c4)ccc3C)c2)ccn1 [Example 378] | ≤ 100 | – | – | 100 to 500 | ≤ 100 | 1000 to 10000
CNC(=O)c1cc(-c2cncc(-c3cc(NC(=O)c4ccnc(C(C)(C)F)c4)ccc3C)c2)ncn1 [Example 379] | ≤ 100 | – | – | ≤ 100 | ≤ 100 | 1000 to 10000
